30 compounds from patent US9073892B2, “Indazolyl triazol derivatives” (Merck Serono S.A., priority 2010, dated 2015) can be followed below.

Assay [1] relates to T1, IRAK1/4 human.
T1 construct: fused on or other part: His tag and TEV cleavage site at the N-terminus
The assay is described as follows: IRAK1/4 phosphorylation IC50 (enzymatic assay, table 2). The format is biochemical. As to conditions: human IRAK1/4 phosphorylation. In short, it runs like this:
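The IC50 values describe inhibition of His-TEV-tagged human IRAK-1 or IRAK-4. Each enzyme was incubated with ATP and compounds in DMSO at 20 µM to 1 nM for 2 or 3 hours, with STK1-biotin peptide included for IRAK-4.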

In assay [2] the test system is IL1β-induced IL8 release in THP1 cells. As to the kind of experiment: IRAK IL8 secretion functional assay. It is filed as cell-based. As to conditions: Homo sapiens; THP-1 cells, IL1β 100 ng/ml overnight, IL8 by HTRF; read-out: IC50, Secretion THP-1/IL-β induced IL8 release. The source says: IRAK IL8 Secretion Functional Assay:
THP1 cells are human monocytes derived from acute monocytic leukemia. IL1β receptor expressed on the surface membrane of THP1 cells induced IL8 release. IRAKs are kinase signaling downstream of TLRs and TNF, IL-18, IL-33 and IL-1 receptors.
In cells, IRAK4 is upstream of IRAK1.
The Human IL8 Kit, provided by CysBio International based in Bagnols/Cèze FR, allows for the quantitative determination of IL-8 in cell-culture supernatants.
Anti-cytokine IL8 antibodies are respectively labeled with europium Cryptate and XL665. Upon their binding to IL-8 molecules, the two antibodies come into close proximity, allowing FRET (Fluorescence Resonance Energy Transfer) to occur. This FRET increases proportionally to IL-8 concentrations and be converted in IL8 pg amounts.
THP-1 cells are seeded on Day 1 in 384 well plate with RPMI 1640 at a density of 30 000 cells/well. Compounds 4×/2% DMSO (range of concentrations from 20 μM to 1 nM) and IL1β 4× at 100 ng/ml final are added to cells overnight at 37° C., 5% CO2. Measurement of IL-8 secretion is done by mixing on Day2 10 μl of supernatant with 10 μl of a mix solution of europium Cryptate and XL665 (v:v) as described by supplier.
HTRF (homogeneous time resolved fluorescence) signal is measured after 3 hours incubation time at 30° C. with a BMG Pherastar reader or equivalent.
On the technique in general: Time-resolved FRET reads energy transfer from a long-lived donor to a nearby acceptor.

`O=C(c1ccc(-n2cc(-c3n[nH]c4ccccc34)nn2)cc1)N1CCC(O)C1` (stereo not drawn) [Example 26, 1-{4-[4-(1H-indazol-3-yl)-1H-1,2,3-triazol-1-yl]benzoyl}pyrrolidin-3-ol]: the IC50 in assay [1] and in assay [2] was 0.1 to 1 µM each time.
In the case of `CN(C)C1CCN(C(=O)c2ccc(-n3cc(-c4n[nH]c5ccccc45)nn3)cc2)C1` (stereo not drawn) [Example 27, 1-{4-[4-(1H-indazol-3-yl)-1H-1,2,3-triazol-1-yl]benzoyl}-N,N-dimethylpyrrolidin-3-amine], the IC50 in assay [1] and in assay [2] was 0.1 to 1 µM throughout.
Regarding `O=C(c1ccc(-n2cc(-c3n[nH]c4ccccc34)nn2)cc1)N1CCC(CO)CC1` [Example 28, (1-{4-[4-(1H-indazol-3-yl)-1H-1,2,3-triazol-1-yl]benzoyl}piperidin-4-yl)methanol], the IC50 in assay [1] and in assay [2] was 0.1 to 1 µM in each case.
For `CN(C)CC1CCCN(C(=O)c2ccc(-n3cc(-c4n[nH]c5ccccc45)nn3)cc2)C1` (stereo not drawn) [Example 29, 1-(1-{4-[4-(1H-indazol-3-yl)-1H-1,2,3-triazol-1-yl]benzoyl}piperidin-3-yl)-N,N-dimethylmethanamine], the IC50 in assay [1] and in assay [2] was 0.1 to 1 µM throughout.
For the compound `CN1CCC(NC(=O)c2ccc(-n3cc(-c4n[nH]c5ccccc45)nn3)cc2)C1=O` (stereo not drawn) [Example 31, 4-[4-(1H-indazol-3-yl)-1H-1,2,3-triazol-1-yl]-N-(1-methyl-2-oxopyrrolidin-3-yl)benzamide], the IC50 in assay [1] and in assay [2] was 0.1 to 1 µM in each case.
As for `Cc1ccc2[nH]nc(-c3cn(-c4ccc(C(=O)N5CCOCC5)cc4)nn3)c2c1` [Example 32, 5-methyl-3-{1-[4-(morpholin-4-ylcarbonyl)phenyl]-1H-1,2,3-triazol-4-yl}-1H-indazole], the IC50 in assay [1] and in assay [2] was 0.1 to 1 µM each time.
Take `COc1cc(-n2cc(-c3n[nH]c4ccccc34)nn2)ccc1C(=O)N1CCOCC1` [Example 34, 3-{1-[3-methoxy-4-(morpholin-4-ylcarbonyl)phenyl]-1H-1,2,3-triazol-4-yl}-1H-indazole]: the IC50 in assay [1] fell in the range of 1 to 5 µM; in assay [2] it was 0.1 to 1 µM.
The corresponding values for `O=C(c1ccc(-n2cc(-c3n[nH]c4ccccc34)nn2)cc1)N1CCCC1` [Example 35, 3-{1-[4-(pyrrolidin-1-ylcarbonyl)phenyl]-1H-1,2,3-triazol-4-yl}-1H-indazole] are below 0.1 µM and 0.1 to 1 µM.
The matching figures for `CN(C)C(=O)c1ccc(-n2cc(-c3n[nH]c4ccccc34)nn2)cc1` [Example 36, 4-[4-(1H-indazol-3-yl)-1H-1,2,3-triazol-1-yl]-N,N-dimethylbenzamide]: 0.1 to 1 µM and 0.1 to 1 µM.
As for `COCC1CCN(C(=O)c2ccc(-n3cc(-c4n[nH]c5ccccc45)nn3)cc2)CC1` [Example 37, 3-[1-(4-{[4-(methoxymethyl)piperidin-1-yl]carbonyl}phenyl)-1H-1,2,3-triazol-4-yl]-1H-indazole], the IC50 in assay [1] and in assay [2] was 0.1 to 1 µM each time.
Turning to `O=C(c1ccc(-n2cc(-c3n[nH]c4ccccc34)nn2)cc1)N1CCCCC1` [Example 38, 3-{1-[4-(piperidin-1-ylcarbonyl)phenyl]-1H-1,2,3-triazol-4-yl}-1H-indazole], the IC50 in assay [1] was 1 to 5 µM; in assay [2] it was 0.1 to 1 µM.
Regarding `CC(=O)N1CCN(C(=O)c2ccc(-n3cc(-c4n[nH]c5ccccc45)nn3)cc2)CC1` [Example 39, 3-(1-{4-[(4-acetylpiperazin-1-yl)carbonyl]phenyl}-1H-1,2,3-triazol-4-yl)-1H-indazole], the IC50 in assay [1] and in assay [2] was 0.1 to 1 µM throughout.
Consider `O=C(NCCCN1CCCC1)c1ccc(-n2cc(-c3n[nH]c4ccccc34)nn2)cc1` [Example 40, 4-[4-(1H-indazol-3-yl)-1H-1,2,3-triazol-1-yl]-N-(3-pyrrolidin-1-ylpropyl)benzamide], for which the IC50 in assay [1] and in assay [2] was 0.1 to 1 µM each time.
For `CCN(CC)CCCNC(=O)c1ccc(-n2cc(-c3n[nH]c4ccccc34)nn2)cc1` [Example 42, N-[3-(diethylamino)propyl]-4-[4-(1H-indazol-3-yl)-1H-1,2,3-triazol-1-yl]benzamide], the IC50 in assay [1] and in assay [2] was 0.1 to 1 µM throughout.
`CN(CCc1ccncc1)C(=O)c1ccc(-n2cc(-c3n[nH]c4ccccc34)nn2)cc1` [Example 43, 4-[4-(1H-indazol-3-yl)-1H-1,2,3-triazol-1-yl]-N-methyl-N-(2-pyridin-4-ylethyl)benzamide]: the IC50 in assay [1] and in assay [2] was 0.1 to 1 µM each time.
With `O=C(NCCN1CCCCC1)c1ccc(-n2cc(-c3n[nH]c4ccccc34)nn2)cc1` [Example 44, 4-[4-(1H-indazol-3-yl)-1H-1,2,3-triazol-1-yl]-N-(2-piperidin-1-ylethyl)benzamide], the IC50 in assay [1] and in assay [2] was 0.1 to 1 µM each time.
With `CN1CCCN(C(=O)c2ccc(-n3cc(-c4n[nH]c5ccccc45)nn3)cc2)CC1` [Example 48, 3-(1-{4-[(4-methyl-1,4-diazepan-1-yl)carbonyl]phenyl}-1H-1,2,3-triazol-4-yl)-1H-indazole], the IC50 in assay [1] and in assay [2] was 0.1 to 1 µM throughout.
Take `CCNC(=O)c1ccc(-n2cc(-c3n[nH]c4ccccc34)nn2)cc1` [Example 49, N-ethyl-4-[4-(1H-indazol-3-yl)-1H-1,2,3-triazol-1-yl]benzamide]: the IC50 in assay [1] and in assay [2] was 0.1 to 1 µM each time.
Consider `COCCNC(=O)c1ccc(-n2cc(-c3n[nH]c4ccccc34)nn2)cc1` [Example 50, 4-[4-(1H-indazol-3-yl)-1H-1,2,3-triazol-1-yl]-N-(2-methoxyethyl)benzamide], for which the IC50 in assay [1] and in assay [2] was 0.1 to 1 µM in each case.
As for `O=C(NCc1ccco1)c1ccc(-n2cc(-c3n[nH]c4ccccc34)nn2)cc1` [Example 51, N-(2-furylmethyl)-4-[4-(1H-indazol-3-yl)-1H-1,2,3-triazol-1-yl]benzamide], the figures for the IC50 in assay [1] and in assay [2] were 0.1 to 1 µM and 1 to 5 µM, respectively.
The corresponding values for `CCN1CCN(C(=O)c2ccc(-n3cc(-c4n[nH]c5ccccc45)nn3)cc2)CC1` [Example 52, 3-(1-{4-[(4-ethylpiperazin-1-yl)carbonyl]phenyl)-1H-1,2,3-triazol-4-yl)-1H-indazole] are 0.1 to 1 µM and 0.1 to 1 µM.
The matching figures for `O=C(NC1CC1)c1ccc(-n2cc(-c3n[nH]c4ccccc34)nn2)cc1` [Example 53, N-cyclopropyl-4-[4-(1H-indazol-3-yl)-1H-1,2,3-triazol-1-yl]benzamide]: 0.1 to 1 µM and 0.1 to 1 µM.
Take `CNC(=O)c1ccc(-n2cc(-c3n[nH]c4ccccc34)nn2)cc1` [Example 54, 4-[4-(1H-indazol-3-yl)-1H-1,2,3-triazol-1-yl]-N-methylbenzamide]: the IC50 in assay [1] and in assay [2] was 0.1 to 1 µM each time.
In the case of `O=C(NCC1CC1)c1ccc(-n2cc(-c3n[nH]c4ccccc34)nn2)cc1` [Example 55], the IC50 in assay [1] and in assay [2] was 0.1 to 1 µM each time.
Take `CCN1CCN(C(=O)c2cccc(-n3cc(-c4n[nH]c5ccccc45)nn3)c2)CC1` [Example 60, 3-(1-{3-[(4-ethylpiperazin-1-yl)carbonyl]phenyl}-1H-1,2,3-triazol-4-yl)-1H-indazole]: the IC50 in assay [1] and in assay [2] was 1 to 5 µM each time.
Consider `O=C(c1ccc(-n2cc(-c3n[nH]c4ccccc34)nn2)cc1)N1CCC(O)CC1` [Example 71, 1-{4-[4(1H-indazol-3-yl)-1H-1,2,3-triazol-1-yl]benzoyl}piperidin-ol], for which the IC50 in assay [1] and in assay [2] was 0.1 to 1 µM each time.
For `CN(C)C1CCN(C(=O)c2ccc(-n3cc(-c4n[nH]c5ccccc45)nn3)cc2)CC1` [Example 72, 1-{4-[4-(1H-indazol-3-yl)-1H-1,2,3-triazol-1-yl]benzoyl}-N,N-dimethylpiperidin-4-amine], the values for the IC50 in assay [1] and in assay [2] were 0.1 to 1 µM and below 0.1 µM, respectively.
The matching figures for `O=C(c1ccc(-n2cc(-c3n[nH]c4ccccc34)nn2)cc1)N1CCCC(C(=O)N2CCCC2)C1` (stereo not drawn) [Example 73, 3-[1-(4-{[3-(pyrrolidin-1-ylcarbonyl)piperidin-1-yl]carbonyl}phenyl)-1H-1,2,3-triazol-4-yl]-1H-indazole]: 0.1 to 1 µM and below 0.1 µM.
The matching figures for `O=C(c1ccc(-n2cc(-c3n[nH]c4ccccc34)nn2)cc1)N1CCCC(CN2CCOCC2)C1` (stereo not drawn) [Example 74]: 0.1 to 1 µM and 0.1 to 1 µM.
The corresponding values for `O=C1CCCN1CC1CCCN(C(=O)c2ccc(-n3cc(-c4n[nH]c5ccccc45)nn3)cc2)C1` (stereo not drawn) [Example 75, 1-[(1-{4-[4-(1H-indazol-3-yl)-1H-1,2,3-triazol-1-yl]benzoyl}piperidin-3-yl)methyl]pyrrolidin-2] are 0.1 to 1 µM and 0.1 to 1 µM.
